ChEMBL document CHEMBL1201862, “PubChem BioAssay data set” (2004)
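Five compound concentrations were applied to cells in 96-well plates for 48 hours; endpoints were derived by simple linear interpolation of the resulting dose-response curve. GI50 marks 50% less growth.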 Active and inactive are the calls of the source. Cut-off read from the data, not from the text of the source: active = GI50 up to about 1.1 µM and inactive = higher.

Key:
Experiment in all cases: NCI-60 cell line screen, 48 h
EKVX = test system: EKVX
HOP-62 = test system: HOP-62
MOLT-4 = test system: MOLT-4
HCT-15 = test system: HCT-15
SW-620 = test system: SW-620
ACHN = test system: ACHN
COLO 205 = test system: COLO 205
CAKI-1 = test system: CAKI-1
OVCAR-8 = test system: OVCAR-8
Malme-3M = test system: Malme-3M
LOX IMVI = test system: LOX IMVI
OVCAR-5 = test system: OVCAR-5
DMS-273 = test system: DMS-273
OVCAR-3 = test system: OVCAR-3
SK-MEL-28 = test system: SK-MEL-28
UACC-62 = test system: UACC-62
NCI-H522 = test system: NCI-H522
SK-MEL-2 = test system: SK-MEL-2
OVCAR-4 = test system: OVCAR-4
SNB-75 = test system: SNB-75

Row | Structure (SMILES) | GI50 (EKVX) | GI50 (HOP-62) | GI50 (MOLT-4) | GI50 (HCT-15) | GI50 (SW-620) | GI50 (ACHN) | GI50 (COLO 205) | GI50 (CAKI-1) | GI50 (OVCAR-8) | GI50 (Malme-3M) | GI50 (LOX IMVI) | GI50 (OVCAR-5) | GI50 (DMS-273) | GI50 (OVCAR-3) | GI50 (SK-MEL-28) | GI50 (UACC-62) | GI50 (NCI-H522) | GI50 (SK-MEL-2) | GI50 (OVCAR-4) | GI50 (SNB-75)
1 | COc1c(OC2OC(CO)C(O)C(O)C2O)cc2c(c1OC)-c1ccc(OC)c(=O)cc1C(NC(C)=O)CC2 (stereo not given) | > 100 µM (inactive) | > 100 µM (inactive) | > 100 µM (inactive) | > 100 µM | > 100 µM (inactive) | > 100 µM (inactive) | > 28.3 µM (inactive) | > 100 µM (inactive) | > 100 µM (inactive) | 81.7 µM (inactive) | > 100 µM (inactive) | > 100 µM (inactive) | > 100 µM (inactive) | > 89.7 µM (inactive) | 61 µM (inactive) | 60.1 µM (inactive) | > 100 µM (inactive) | 57.8 µM (inactive) | > 100 µM (inactive) | 25.3 µM (inactive)
2 | Cn1c(=O)c2c3ccccc3c(C(=O)c3ccccc3)n2c2ccccc21 | > 89.3 µM (inactive) | > 42.8 µM (inactive) | 3.94 µM (inactive) | 3.4 µM | 5.78 µM (inactive) | 24 µM (inactive) | 5.51 µM (inactive) | > 26.8 µM (inactive) | 16.4 µM (inactive) | 5.62 µM (inactive) | 9.64 µM (inactive) | 17.3 µM (inactive) | 3.27 µM (inactive) | 2.94 µM (inactive) | 17.8 µM (inactive) | 4.02 µM (inactive) | 3.33 µM (inactive) | 15.5 µM (inactive) | 22.6 µM (inactive) | 3.18 µM (inactive)
3 | O=C(Nc1cccc(Cl)c1)c1cc2cc(/N=N/c3ccc(Br)cc3)ccc2oc1=O | 34.3 µM (inactive) | > 100 µM (inactive) | 14.9 µM (inactive) | 10.2 µM | 29.3 µM (inactive) | 23.7 µM (inactive) | 41.4 µM (inactive) | 23.2 µM (inactive) | 58.7 µM (inactive) | > 100 µM (inactive) | 14.4 µM (inactive) | 31 µM (inactive) | 21.3 µM (inactive) | 22.8 µM (inactive) | 47.8 µM (inactive) | 14.1 µM (inactive) | 49.4 µM (inactive) | 12.9 µM (inactive) | 27.7 µM (inactive) | 37 µM (inactive)
4 | Cc1ccc(NC(=O)C2C3CCC(O3)C2C(=O)O)cc1 (stereo not given) | > 94.4 µM (inactive) | > 100 µM (inactive) | > 87.9 µM (inactive) | > 44.9 µM | > 22.3 µM (inactive) | > 93.5 µM (inactive) | 35.7 µM (inactive) | > 100 µM (inactive) | > 100 µM (inactive) | > 100 µM (inactive) | > 38.7 µM (inactive) | > 100 µM (inactive) | > 57.8 µM (inactive) | > 52.2 µM (inactive) | > 75 µM (inactive) | > 46.6 µM (inactive) | 43.6 µM (inactive) | 64.9 µM (inactive) | > 100 µM (inactive) | 31.9 µM (inactive)
